“Also recorded” adds a separate entry of the source. Structures can show the parent of a compound that is named as a salt.
Experiments:
32Dp210/e14a2 cells [1] = assay: Total cell number 48 h after last siRNA treatment, 32Dp210/e14a2 cells; assay type: cell-based, murine; conditions: start 2.5 Mio cells
Procedure: (§1) siRNA-transfection: siRNAs were transfected into the murine cell lines 32Dp210Bcr-Abl-e14a2, -e13a2, 32Dp190Bcr-Abl-e1a2 and the human leukemic cell line MEG-01 using electroporation. Cell density was adjusted to 2.5-5×10^6/ml in RPMI/10% FCS. 800 μl of this cell suspension were mixed with siRNA in a 4 mm electroporation cuvette. Cells were electroporated by means of an EasyJect electroporator (peqlab, Erlangen, Germany) using a single-pulse protocol (250 V, 1800 μF, 8.). This treatment was repeated in intervals of 24 hours as indicated.
In order to determine optimal conditions for RNA interference, we repeated the siRNA treatment one to four times at intervals of 24 hours. […] Despite its short duration, the effect was still sufficient to reduce the viability of cells to approximately 59% relative to control cells (EPC, 100%). […] The residual viability level of the cells treated four times with BAF7 measured in MTT assay was not more than ˜2.5% of the level of the control cells. Identical results were obtained when cell counts 48 hours following last treatment were used for assessment of the biological effect. Both mock-treated and cells treated with a mismatch siRNA still increased their cell number from 2.5 Mio cells to more than 25 Mio cells within 48 hours. […] The lower efficiency of BAF1 became even more obvious when the biological effect of BAF1 was assessed.

32Dp210/e13a2 cells = assay: MTT viability assay in 32Dp210/e13a2 cells; assay type: cell-based, murine; conditions: 32Dp210Bcr-Abl (e13a2) cells; for viability: repeated (up to three) treatments; for viability relative to controls (EPC): 48 h following 3rd treatment
Procedure: (§2) FIGS. 1A-1B: ˜2.5 Mio 32Dp210/e13a2 cells have been electroporated 1-3×at intervals of 24 h with the indicated siRNA. BAF3/BAF15/BAF17/BAF19: bcr-abl-e13a2-specific siRNAs; BAF9: bcr-abl-e14a2-specific siRNA, served as control; EPC: electroporation control. FIG. 1A: Western blot analysis of p210^Bcr-abl (e13a2) in 32Dp210/e13a2˜24 h following siRNA treatment; the level of GAPDH served as loading control. Lane 1: EPC, Lane 2: BAF9, Lane 3: BAF3, Lane 4: BAF15, Lane 5: BAF17, Lane 6: BAF19. […] Values are means +/− SD of triplicates.
(§3) Survival Assay: Following the last siRNA treatment cells were seeded in 96 well plates and cultivated for another ˜48 hours. Cell survival was then measured by MTT assay as described (Van der Kuip H, et al., Blood. 2001, 98:1532)
as §1
(§4) In 32Dp210Bcr-Abl-e14a2, -e13a2 and 32Dp190Bcr-Abl-e1a2 inhibition of Bcr-Abl can be compensated by addition of exogenous growth factor to the medium. Therefor, recombinant murine IL-3, (1 ng/ml) was added to the growth medium during siRNA treatment of these cell lines. Following the last siRNA treatment cells were washed and factor deprived before starting the different examination procedures (Western blot/MTT).

p210Bcr-Abl (e13a2) = assay: Western blot of Bcr-Abl protein in 32Dp210/e13a2 cells; assay type: cell-based, murine; conditions: 32Dp210Bcr-Abl (e13a2) cells, repeated electroporation
Sequence of p210Bcr-Abl (e13a2) (P11274+P00519 fused): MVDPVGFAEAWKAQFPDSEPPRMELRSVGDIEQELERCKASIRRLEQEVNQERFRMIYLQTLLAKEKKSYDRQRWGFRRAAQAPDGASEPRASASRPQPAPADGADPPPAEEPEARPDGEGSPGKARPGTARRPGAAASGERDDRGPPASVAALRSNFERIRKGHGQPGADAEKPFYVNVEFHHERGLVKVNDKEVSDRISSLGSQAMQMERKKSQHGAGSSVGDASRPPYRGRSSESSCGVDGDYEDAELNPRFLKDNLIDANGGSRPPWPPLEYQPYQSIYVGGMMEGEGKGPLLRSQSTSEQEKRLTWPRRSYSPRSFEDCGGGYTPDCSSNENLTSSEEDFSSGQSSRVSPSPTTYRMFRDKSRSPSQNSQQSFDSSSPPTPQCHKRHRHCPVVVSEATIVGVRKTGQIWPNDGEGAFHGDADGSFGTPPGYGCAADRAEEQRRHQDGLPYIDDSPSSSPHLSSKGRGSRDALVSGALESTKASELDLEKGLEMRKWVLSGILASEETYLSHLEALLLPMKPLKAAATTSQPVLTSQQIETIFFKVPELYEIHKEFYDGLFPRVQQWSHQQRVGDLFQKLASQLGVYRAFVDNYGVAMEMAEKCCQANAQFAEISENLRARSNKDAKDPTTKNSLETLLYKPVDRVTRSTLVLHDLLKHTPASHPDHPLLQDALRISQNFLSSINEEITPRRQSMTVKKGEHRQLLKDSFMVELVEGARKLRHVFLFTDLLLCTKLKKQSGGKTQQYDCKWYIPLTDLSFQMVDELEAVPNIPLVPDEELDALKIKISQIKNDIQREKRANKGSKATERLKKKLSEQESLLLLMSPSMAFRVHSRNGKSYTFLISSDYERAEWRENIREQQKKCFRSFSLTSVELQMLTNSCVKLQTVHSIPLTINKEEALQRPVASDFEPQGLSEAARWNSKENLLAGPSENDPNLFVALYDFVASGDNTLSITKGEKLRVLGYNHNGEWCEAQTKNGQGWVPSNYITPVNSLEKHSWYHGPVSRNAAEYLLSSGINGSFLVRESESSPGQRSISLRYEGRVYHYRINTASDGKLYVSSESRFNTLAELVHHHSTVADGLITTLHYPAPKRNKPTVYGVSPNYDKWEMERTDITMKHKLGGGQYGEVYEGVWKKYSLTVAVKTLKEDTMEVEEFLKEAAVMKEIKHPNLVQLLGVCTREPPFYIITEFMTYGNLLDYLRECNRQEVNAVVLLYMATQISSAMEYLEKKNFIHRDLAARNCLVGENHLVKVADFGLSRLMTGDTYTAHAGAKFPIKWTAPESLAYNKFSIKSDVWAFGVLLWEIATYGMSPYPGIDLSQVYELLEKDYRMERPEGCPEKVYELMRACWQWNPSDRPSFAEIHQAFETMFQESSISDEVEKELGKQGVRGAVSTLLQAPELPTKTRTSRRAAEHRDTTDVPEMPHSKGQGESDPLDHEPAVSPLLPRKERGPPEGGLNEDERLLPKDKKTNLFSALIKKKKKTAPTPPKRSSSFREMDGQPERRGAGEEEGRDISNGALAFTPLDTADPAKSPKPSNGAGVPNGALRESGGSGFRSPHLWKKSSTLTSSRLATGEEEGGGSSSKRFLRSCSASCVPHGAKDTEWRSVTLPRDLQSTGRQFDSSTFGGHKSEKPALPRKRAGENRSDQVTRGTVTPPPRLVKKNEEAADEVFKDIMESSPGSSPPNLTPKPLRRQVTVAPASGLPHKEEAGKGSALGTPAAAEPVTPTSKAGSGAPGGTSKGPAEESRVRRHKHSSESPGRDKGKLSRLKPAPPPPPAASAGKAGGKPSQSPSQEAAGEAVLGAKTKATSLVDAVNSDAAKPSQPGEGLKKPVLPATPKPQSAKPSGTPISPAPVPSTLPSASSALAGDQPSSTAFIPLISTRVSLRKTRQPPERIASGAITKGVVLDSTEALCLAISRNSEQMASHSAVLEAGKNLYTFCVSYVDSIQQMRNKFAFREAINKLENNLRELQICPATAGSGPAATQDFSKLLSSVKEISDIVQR
Procedure: as §2
(§5) Protein assay: Western blot analysis was performed ˜24 h following the last siRNA -treatment or ˜96 hours following transfection with the pSUPER siRNA-expression vector as described (Goetz A W, et al., Cancer Res. 2001, 61:7635)
as §1, §4

p190Bcr-Abl = assay: Western blot of p190Bcr-Abl in SUP-B15 cells; assay type: cell-based, human; conditions: 3 treatments at intervals of 24 hours, compared to EPC or BAF19 control
Procedure: FIG. 3: Cells from the human B cell precursor leukemia cell line SUP-B15 (ACC 389; DSMZ, Braunschweig, breakpoint variant e1a2) were treated as described for […] with an e1a2-specific siRNA (BAF22) or with siRNA directed to another breakpoint variant (BAF19, specific for e13a2) as a control.
as §1
SUP-B15 cells were treated by electroporation as described above with an e1a2-specific siRNA (BAF22) or with siRNA directed to another breakpoint variant (BAF19) as a control.

p190Bcr-Abl (e1a2) = assay: Western blot of Bcr-Abl protein in 32Dp190/e1a2 cells; assay type: cell-based, murine; conditions: 32Dp190Bcr-Abl (e1a2) cells, treated twice at intervals of 24 h
Procedure: (§6) FIGS. 2A-2B: ˜5 Mio 32Dp190/e1a2 cells have been electroporated twice at intervals of 24 h with the indicated siRNA. BAF22/BAF24: bcr-abl-e1a2-specific siRNAs; BAF9: bcr-abl-e14a2-specific siRNA, served as control; BAF19: bcr-abl-e13a2-specific siRNA, served as control; EPC: electroporation control. FIG. 2A: Western blot analysis of p190^Bcr-abl (e1a2) in 32Dp190/e1a2 cells about 24 h following second siRNA treatment; the level of GAPDH served as loading control. Lane 1: EPC, Lane 2: BAF9, Lane 3: BAF19, Lane 4: BAF22, Lane 5: BAF24. […] Values are means +/− SD of triplicates.
as §5
as §1, with “indicated. […]” for “indicated.”

32Dp190/e1a2 cells = assay: MTT viability assay in 32Dp190/e1a2 cells; assay type: cell-based, murine
Procedure: as §6
[…] Cell survival was then measured by MTT assay as described (Van der Kuip H, et al., Blood. 2001, 98:1532)
as §1
In 32Dp210Bcr-Abl-e14a2, -e13a2 and 32Dp190Bcr-Abl-e1a2 inhibition of Bcr-Abl can be compensated by addition of exogenous growth factor to the medium. […]

32Dp210-T315I cells = assay: Sensitivity to imatinib mesylate of 32Dp210-T315I cells; assay type: cell-based, murine; conditions: 32D cells expressing Bcr-Abl-T315I
32Dp210-H396P cells = assay: Sensitivity to imatinib mesylate of 32Dp210-H396P cells; assay type: cell-based, murine; conditions: 32D cells expressing Bcr-Abl-H396P
K562 cells = conditions: 48 h treatment with imatinib mesylate alone (Wilda et al.); cited from earlier work
p210Bcr-Abl (e14a2) = assay: Western blot of Bcr-Abl protein in 32Dp210/e14a2 cells after siRNA electroporation; assay type: cell-based, murine; conditions: 32Dp210Bcr-Abl (e14a2) cells
Sequence of p210Bcr-Abl (e14a2) (P11274+P00519 fused): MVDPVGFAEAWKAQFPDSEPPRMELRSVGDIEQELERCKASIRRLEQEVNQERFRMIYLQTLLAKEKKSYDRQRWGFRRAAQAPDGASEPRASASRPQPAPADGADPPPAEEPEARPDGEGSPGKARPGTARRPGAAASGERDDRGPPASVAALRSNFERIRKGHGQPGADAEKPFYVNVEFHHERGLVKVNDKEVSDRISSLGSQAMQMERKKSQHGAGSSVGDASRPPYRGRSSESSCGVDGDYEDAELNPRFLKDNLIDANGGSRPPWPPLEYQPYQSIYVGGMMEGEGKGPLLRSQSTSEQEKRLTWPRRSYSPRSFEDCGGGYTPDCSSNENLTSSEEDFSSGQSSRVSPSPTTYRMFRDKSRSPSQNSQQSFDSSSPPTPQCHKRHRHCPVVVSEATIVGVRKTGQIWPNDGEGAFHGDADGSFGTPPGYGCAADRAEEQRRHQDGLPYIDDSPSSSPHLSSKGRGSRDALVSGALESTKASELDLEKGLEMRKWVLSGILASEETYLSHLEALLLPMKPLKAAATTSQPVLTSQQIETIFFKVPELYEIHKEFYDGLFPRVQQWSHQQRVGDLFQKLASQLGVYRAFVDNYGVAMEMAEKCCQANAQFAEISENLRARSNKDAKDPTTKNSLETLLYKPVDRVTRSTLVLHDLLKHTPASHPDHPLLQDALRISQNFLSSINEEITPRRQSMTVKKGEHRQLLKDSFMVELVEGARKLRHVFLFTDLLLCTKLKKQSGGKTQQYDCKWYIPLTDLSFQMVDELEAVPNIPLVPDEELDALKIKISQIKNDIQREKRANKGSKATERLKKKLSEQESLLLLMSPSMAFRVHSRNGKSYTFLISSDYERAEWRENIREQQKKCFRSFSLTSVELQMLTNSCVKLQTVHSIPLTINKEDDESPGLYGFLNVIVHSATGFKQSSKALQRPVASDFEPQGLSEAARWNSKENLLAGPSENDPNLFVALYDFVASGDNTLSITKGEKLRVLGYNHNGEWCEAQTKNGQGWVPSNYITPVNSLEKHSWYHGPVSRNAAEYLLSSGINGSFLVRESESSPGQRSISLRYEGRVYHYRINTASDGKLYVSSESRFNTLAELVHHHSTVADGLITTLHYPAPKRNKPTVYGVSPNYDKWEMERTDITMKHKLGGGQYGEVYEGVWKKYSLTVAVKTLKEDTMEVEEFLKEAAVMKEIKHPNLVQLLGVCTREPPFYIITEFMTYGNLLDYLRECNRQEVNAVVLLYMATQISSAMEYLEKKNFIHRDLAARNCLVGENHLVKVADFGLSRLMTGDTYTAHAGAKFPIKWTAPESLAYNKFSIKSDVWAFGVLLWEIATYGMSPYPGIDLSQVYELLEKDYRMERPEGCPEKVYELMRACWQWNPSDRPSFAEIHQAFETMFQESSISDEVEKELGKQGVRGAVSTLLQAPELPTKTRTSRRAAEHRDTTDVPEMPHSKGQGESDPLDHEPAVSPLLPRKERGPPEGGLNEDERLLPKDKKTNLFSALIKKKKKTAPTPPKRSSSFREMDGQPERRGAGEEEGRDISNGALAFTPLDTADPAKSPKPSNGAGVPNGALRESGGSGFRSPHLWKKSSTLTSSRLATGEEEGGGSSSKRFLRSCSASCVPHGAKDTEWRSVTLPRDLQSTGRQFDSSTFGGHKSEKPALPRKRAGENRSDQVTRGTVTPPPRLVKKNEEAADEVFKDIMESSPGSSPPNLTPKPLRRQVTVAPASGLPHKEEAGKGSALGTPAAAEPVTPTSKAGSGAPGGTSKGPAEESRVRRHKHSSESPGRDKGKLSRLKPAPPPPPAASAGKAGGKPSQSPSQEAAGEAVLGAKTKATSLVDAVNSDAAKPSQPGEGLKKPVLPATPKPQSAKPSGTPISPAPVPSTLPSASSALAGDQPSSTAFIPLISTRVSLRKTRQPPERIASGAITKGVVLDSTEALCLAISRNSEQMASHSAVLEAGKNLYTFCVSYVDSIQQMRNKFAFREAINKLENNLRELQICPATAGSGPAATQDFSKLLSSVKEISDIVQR
Procedure: as §5, §1, §4
We used three murine hematopoetic 32D cell lines expressing either p210Bcr-Abl (e14a2), p210Bcr-Abl (e13a2) or p190Bcr-Abl (e1a2) to study the effectiveness of siRNAs to silence each of these human Bcr-Abl fusion breakpoint variants. In addition, experiments were performed in human Ph+leukemia cells (K562, MEG-01). All siRNAs used were directed to breakpoints of the Bcr and Abl sequence of the respective Bcr-Abl mRNA. RNAi-efficiency was assayed via analysis of Bcr-Abl protein levels and by monitoring the biological effect using MTT viability assay.

32Dp210/e14a2 cells [2] = assay: MTT viability assay in 32Dp210/e14a2 cells after siRNA electroporation; assay type: cell-based, murine; conditions: treated four times, MTT
Procedure: as §3, §1, §4

Bcr-Abl-e13a2 = assay: Western blot of Bcr-Abl protein in MEG-01 cells; assay type: cell-based, human; conditions: treated three times, compared to mismatch control BAF28
Procedure: as §5, §1
(§7) All three major Bcr-Abl oncogene variants -e14a2, -e13a2 and -e1a2 can be targeted by RNA interference. To identify effective siRNAs for inhibition of the second major Bcr-Abl fusion gene relevant in CML, Bcr-Abl-e13a2, we treated 32Dp210Bcr-Abl (e13a2) cells with four siRNAs (BAF3, BAF15, BAF17, BAF19) targeting different sequences of the Bcr-Able13a2 mRNA breakpoint. As a control we used a siRNA directed to the Bcr-Abl-e14a2 fusion sequence (BAF9). […] Despite the considerable overlap in their target sequence, BAF17 and BAF3 had no effect Bcr-Abl protein levels. […]

MEG-01 cells = assay: MTT viability assay in MEG-01 cells; assay type: cell-based, human; conditions: treated three times
Procedure: as §3, §1, §7

BAF8: siRNA duplex, SEQ ID No. 3/4, Bcr-Abl-e14a2, mismatch control to BAF7 (three mismatches) (chain 1 CAGUGUUCAUAAGCCGUUCAG; chain 2 CUGAACGGCUUAUGAACACUGCU; chemistry not given here)
total cell number 48 h following last treatment (32Dp210/e14a2 cells [1]): more than 25 Mio cells

BAF3: siRNA duplex, SEQ ID No. 9/10, specific for Bcr-Abl-e13a2 (chain 1 UAAGGAAGAAGCCCUUCAGCG; chain 2 CGCUGAAGGGCUUCUUCCUUAUU; listed as RNA, chemistry not given here)
viability (32Dp210/e13a2 cells): did also not interfere with the viability
Bcr-Abl protein levels (p210Bcr-Abl (e13a2)): completely ineffective; also recorded: no effect

BAF22: siRNA duplex, SEQ ID No. 19/28, specific for Bcr-Abl-e1a2 (chain 1 GGAGACGCAGAAGCCCUUCAG; chain 2 CUGAAGGGCUUCUGCGUCUCCAU; listed as RNA, chemistry not given here)
p190Bcr-Abl protein levels / Bcr-Abl-e1a2 expression (p190Bcr-Abl): effectively silenced Bcr-Abl-e1a2 expression; also recorded: significantly reduced
Bcr-Abl protein levels / Bcr-Abl-e1a2 gene expression (p190Bcr-Abl (e1a2)): actively silenced Bcr-Abl-e1a2 gene expression; also recorded: significant down-regulation
viability (32Dp190/e1a2 cells; 32Dp190/e1a2 cells, repeated treatment, ~40 h after second treatment): reduction of viability
viability compared to EPC (100%) (32Dp190/e1a2 cells; 32Dp190Bcr-Abl (e1a2) cells, after 2nd treatment): 15%

Cc1ccc(NC(=O)c2ccc(CN3CCN(C)CC3)cc2)cc1Nc1nccc(-c2cccnc2)n1 [imatinib mesylate, Imatinib mesylate]
resistance to imatinib mesylate (32Dp210-T315I cells): complete resistance
loss of sensitivity to imatinib mesylate compared to 32Dp210-wt (32Dp210-H396P cells): ~4.7 fold
cells undergoing apoptosis (K562 cells): 8%

BAF15: siRNA duplex, SEQ ID No. 11/25, specific for Bcr-Abl-e13a2 (chain 1 AAUAAGGAAGAAGCCCUUCAG; chain 2 CUGAAGGGCUUCUUCCUUAUUGA; listed as RNA, chemistry not given here)
viability relative to controls (EPC) (32Dp210/e13a2 cells): ~10%
viability (32Dp210/e13a2 cells): almost complete loss of viability; also recorded: reduction of viability
Bcr-Abl protein levels (p210Bcr-Abl (e13a2)): effective down-regulation

BAF17: siRNA duplex, SEQ ID No. 13/26, specific for Bcr-Abl-e13a2 (chain 1 GGAAGAAGCCCUUCAGCGGCC; chain 2 GGCCGCUGAAGGGCUUCUUCCUU; listed as RNA, chemistry not given here)
viability (32Dp210/e13a2 cells): did also not interfere with the viability
Bcr-Abl protein levels (p210Bcr-Abl (e13a2)): no effect

BAF24: siRNA duplex, SEQ ID No. 21/22, specific for Bcr-Abl-e1a2 (chain 1 GACGCAGAAGCCCUUCAGCGG; chain 2 CCGCUGAAGGGCUUCUGCGUCUC; listed as RNA, chemistry not given here)
Bcr-Abl protein levels / Bcr-Abl-e1a2 gene expression (p190Bcr-Abl (e1a2)): no effect at all

BAF1: siRNA duplex, SEQ ID No. 7/8, single mismatch compared to BAF7 (chain 1 CAGAGUUGAAAAGCCCUUCAG; chain 2 CUGAAGGGCUUUUCAACUCUGCU; listed as RNA, chemistry not given here) [reference compound]
down-regulation of Bcr-Abl protein levels compared to BAF7 (p210Bcr-Abl (e14a2)): less efficient down-regulation
viability relative to EPC (32Dp210/e14a2 cells [2]): 52%

BAF19: siRNA duplex, SEQ ID No. 15/27, specific for Bcr-Abl-e13a2 (chain 1 AUCAAUAAGGAAGAAGCCCUU; chain 2 AAGGGCUUCUUCCUUAUUGAUGG; listed as RNA, chemistry not given here)
Bcr-Abl protein levels / Bcr-Abl-e13a2 expression (Bcr-Abl-e13a2): effectively silenced Bcr-Abl-e13a2 expression; also recorded: significant loss of Bcr-Abl protein levels
viability relative to controls (EPC) (32Dp210/e13a2 cells): ~14%
viability (32Dp210/e13a2 cells): almost complete loss of viability; also recorded: reduction of viability
Bcr-Abl protein levels (p210Bcr-Abl (e13a2)): effective down-regulation
viability compared to control cells (EPC, 100%) (MEG-01 cells): ~28%

Reference: patent publication US7994307B2, “RNAi modulation of the BCR-ABL fusion gene and uses thereof” (Alnylam Pharmaceuticals, Inc., priority 2004, dated 2011)
